Measured values as given in patent EP1074259A1, “PREVENTIVES FOR ALCOHOLIC GASTRITIS” (CHUGAI SEIYAKU KABUSHIKI KAISHA, priority 1998, dated 1999).

Test system: ethanol-induced gastric mucosal injury
Test: Prevention of 99.5% ethanol-induced gastric mucosal injury in rats
Format: in vivo
Settings: for Mucosal injury suppression rate (%): 1 h before 99.5% ethanol 1 ml/animal, n = 10/group
Protocol: Rats were forced to abstain from food and water for 24 hours, and used as experimental subjects. […] When the two drugs were combined, the dose of the combination treatment was set such that the proportion of sucralfate was 1/3 of the dose, and the proportion of famotidine was 2/3 of the dose, or vice versa (i.e., the proportion of sucralfate was 2/3 of the dose, and the proportion of famotidine was 1/3 of the dose). For each of the individual treatments and the combination treatments, a high dose group, a medium dose group, and a low dose group were provided by setting a high dose, a medium dose, and a low dose at a ratio of 9:3:1. Each dose level of the drug was suspended in a 2% aqueous solution of acacia. The suspension was orally administered in a volume of 2 ml/kg body weight, while only the solvent was administered in the same volume for a control group. […] One hour after administration of the test drug, 99.5% ethanol in an amount of 1 ml/animal was administered orally. One hour later, the animal subjects were sacrificed and the stomach removed, treated, and measured for the extent of injuries occurring in the gastric mucosa. The total amount of injuries occurring In the respective animals was calculated to determine the ED50 values for the preventive effect of the test drug on gastric mucosal injury. […]

Molecule | ED50 (Rattus norvegicus, po, drug administered alone, P.O., rats, read-out: 50% preventive dose ED50) [mg/kg] | Mucosal injury suppression rate (%) (famotidine alone 10 mg/kg P.O.) | Mucosal injury suppression rate (%) (famotidine alone 30 mg/kg P.O.) | Mucosal injury suppression rate (%) (famotidine alone 90 mg/kg P.O.) | 50% preventive dose ED50 (mg/kg) (drug administered alone, P.O., rats) | Mucosal injury suppression rate (%) (sucralfate alone 10 mg/kg P.O.) | Mucosal injury suppression rate (%) (sucralfate alone 30 mg/kg P.O.) | Mucosal injury suppression rate (%) (sucralfate alone 90 mg/kg P.O.)
NC(N)=Nc1nc(CSCCC(N)=NS(N)(=O)=O)cs1 [Famotidine, famotidine] | 46.3 | 13 | 42 | 66 |  |  |  | 
sucralfate |  |  |  |  | Sucralfate 21.4 mg/kg | 19 | 69 | 92
